From patent publication EP0407583A1, “DERIVATIVES OF DICHLOR[…] ACYLAMIDO[…] AND INSECTICIDAL, FU[…] HEMATOCIDAL PREPARATIONS BASED ON THEM” (priority 1989, dated 1990)

What was measured:
Solubility (qualitative) = conditions: water, alcohols, acetone
domestic flies [1] = assay: Insecticidal activity on flies, large-scale test in living and production premises; assay type: in vivo; conditions: 0.1% aqueous solution with 5% glucose, 2-3 dishes per 20 m^2, living and production premises; 72 hours
Experimental: (§1) Based on the compound there was prepared an insecticidal composition in the form of a 0.1% solution thereof in a 5% aqueous glucose solution. The activity of the insecticidal composition, according to the invention was tested on domestic flies. To this end, into the gauze-made boxes of 10x10 cm in size (6 boxes) 6-7-day flies of both sexes were placed at the rate of 50 individuals per each box. Into 5 boxes there were placed Petri dishes with a 5% aqueous glycose solutiono An insecticidal activity of the composition, according to the invention, was tested in com- parison with an insecticidal composition based on 0,0-dimethyl(1-hydroxy-2,2,2-trichloroethyl)phosphonate. The tests were also conducted in living and production premises. For this, Petri dishes containing a 0.1% aqueous solution of the insecticide of the invention, to which a 5% glucose solution was added, were put at a rate of 2-3 dishes per 20 m^2. The activity of the composition, according to the invention, was evaluated by a direct count of dead insects in 72 hours or by using the adhesive tapes and counting the number of flies on the tape prior and after the test.

domestic flies [2] = assay: Insecticidal activity on domestic flies, laboratory test (gauze boxes); assay type: in vivo; conditions: 0.1% solution in 5% aqueous glucose solution; 50 flies per box; count in 72 hours
Experimental: as §1

Fusarium oxysporum [3] = assay: Inhibition of phytopathogenic fungi growth, laboratory test on potato-dextrose agar; assay type: cell-based; conditions: active principle 0.01 % by mass in potato-dextrose agar
Experimental: (§2) A fungicidal composition based on this compound was prepared in the form of a 0.01% solution thereof in distilled water. A fungicidal action of the composition, according to the invention, was tested for inhibition of vegetative fungi growth such as Fusarium moniliforme, Ventura inaequalis, Rhyzoctonia ciolaceae, Botrytis cinereae, Verticillium albo-atrum, Diplodia zeae, Fusarium oxysporum, Rhoma betae, Rhyzoctonia aderholdii, Aspergillus niger, Alternaria sobani, Botrytis allii, Aspergillus fumigatis, Fusarium culmorum, Penicillium cyclopium affecting potato, sugar beet, cotton seeds either in laboratory or field conditions. For testing it to the Petri dishes containing potato-dextrose agar the composition of the invention was.added at the concentration of an active principle of 0.01 % by mass. The Petri dishes containing the same agar culture were inoculated with a mycelium of phytopathogenic fungi. For control dishes the phytopathogenic fungi were inoculated on agar without using the composition of the invention. A fungicidal effect of the composition, according to the invention was tested in comparison with the known fungicidal compositions based on 2,3-dichloro-1,4-naphthoquinone, zinc N,N'-ethylene-bis-dithiocarbamate and tetramethylthiuram disulphide.

Rhyzoctonia violaceae [4] = assay: as above; assay type: cell-based; conditions: active principle 0.01 % by mass in potato-dextrose agar
Experimental: as §2

Aspergillus fumigatis [5] = assay: as above; assay type: cell-based; conditions: active principle 0.01 % by mass in potato-dextrose agar
Experimental: as §2

Aspergillus niger [6] = assay: as above; assay type: cell-based; conditions: active principle 0.01 % by mass in potato-dextrose agar
Experimental: as §2

Penicillium cyclopium [7] = assay: as above; assay type: cell-based; conditions: active principle 0.01 % by mass in potato-dextrose agar
Experimental: as §2

Venturia inaequalis [8] = assay: as above; assay type: cell-based; conditions: active principle 0.01 % by mass in potato-dextrose agar
Experimental: as §2

Botrytis allii [9] = assay: as above; assay type: cell-based; conditions: active principle 0.01 % by mass in potato-dextrose agar
Experimental: as §2

Fusarium culmorum [10] = assay: as above; assay type: cell-based; conditions: active principle 0.01 % by mass in potato-dextrose agar
Experimental: as §2

Fusarium moniliforme [11] = assay: as above; assay type: cell-based; conditions: active principle 0.01 % by mass in potato-dextrose agar
Experimental: as §2

Alternaria sobani [12] = assay: as above; assay type: cell-based; conditions: active principle 0.01 % by mass in potato-dextrose agar
Experimental: as §2

Botrytis cinereae [13] = assay: as above; assay type: cell-based; conditions: active principle 0.01 % by mass in potato-dextrose agar
Experimental: as §2

Rhoma betae [14] = assay: as above; assay type: cell-based; conditions: active principle 0.01 % by mass in potato-dextrose agar
Experimental: as §2

Rhyzoctonia aderholdii [15] = assay: as above; assay type: cell-based; conditions: active principle 0.01 % by mass in potato-dextrose agar
Experimental: as §2

Diplodia zeae [16] = assay: as above; assay type: cell-based; conditions: active principle 0.01 % by mass in potato-dextrose agar
Experimental: as §2

Verticillium albo-atrum [17] = assay: as above; assay type: cell-based; conditions: active principle 0.01 % by mass in potato-dextrose agar
Experimental: as §2

Fusarium oxysporum [18] = assay: Inhibition of phytopathogenic fungi, field test on affected potato plants; assay type: in vivo; conditions: 5 m^2 plots of affected potato plants sprayed
Description: (§3) For field tests the plots of 5 m^2 in size with potato plants affected by Fusarium moniliforme, Venturia inaequalis, Rhyzoctonia violaceae, Botrytis cinereae, Verticillium albo-atrum, Diplodia zeae, Fusarium oxysporum, Rhoma betae, Rhyzoctonia aderholdii, Aspergillus niger, Alternaria sobani, Botrytis allii, Aspergillus fumigatis, Fusarium culmorum, Penicillium cyclopium were sprayed with the fungicide of the invention. To compare, the similar plots of the affected potato plants were aprayed with the known compositions indicated above.

Rhyzoctonia violaceae [19] = assay: as above; assay type: in vivo; conditions: 5 m^2 plots of affected potato plants sprayed
Description: as §3

Aspergillus fumigatis [20] = assay: as above; assay type: in vivo; conditions: 5 m^2 plots of affected potato plants sprayed
Description: as §3

Aspergillus niger [21] = assay: as above; assay type: in vivo; conditions: 5 m^2 plots of affected potato plants sprayed
Description: as §3

Penicillium cyclopium [22] = assay: as above; assay type: in vivo; conditions: 5 m^2 plots of affected potato plants sprayed
Description: as §3

Venturia inaequalis [23] = assay: as above; assay type: in vivo; conditions: 5 m^2 plots of affected potato plants sprayed
Description: as §3

Botrytis allii [24] = assay: as above; assay type: in vivo; conditions: 5 m^2 plots of affected potato plants sprayed
Description: as §3

Fusarium culmorum [25] = assay: as above; assay type: in vivo; conditions: 5 m^2 plots of affected potato plants sprayed
Description: as §3

Fusarium moniliforme [26] = assay: as above; assay type: in vivo; conditions: 5 m^2 plots of affected potato plants sprayed
Description: as §3

Alternaria sobani [27] = assay: as above; assay type: in vivo; conditions: 5 m^2 plots of affected potato plants sprayed
Description: as §3

Botrytis cinereae [28] = assay: as above; assay type: in vivo; conditions: 5 m^2 plots of affected potato plants sprayed
Description: as §3

Rhoma betae [29] = assay: as above; assay type: in vivo; conditions: 5 m^2 plots of affected potato plants sprayed
Description: as §3

Rhyzoctonia aderholdii [30] = assay: as above; assay type: in vivo; conditions: 5 m^2 plots of affected potato plants sprayed
Description: as §3

Diplodia zeae [31] = assay: as above; assay type: in vivo; conditions: 5 m^2 plots of affected potato plants sprayed
Description: as §3

Verticillium albo-atrum [32] = assay: as above; assay type: in vivo; conditions: 5 m^2 plots of affected potato plants sprayed
Description: as §3

Row | Compound | solubility (Solubility (qualitative)) | Death of flies, % tests large-scale (domestic flies [1]) | Death of flies, % tests laboratory (domestic flies [2]) | Inhibition of growth of phytopathogenic fungi colonies, % Rhyzoctonia violaceae test laboratory (Rhyzoctonia violaceae [4]) | Inhibition of growth of phytopathogenic fungi colonies, % Venturia inaequalis test laboratory (Venturia inaequalis [8]) | Inhibition of growth of phytopathogenic fungi colonies, % Fusatium monili-forme test laboratory (Fusarium moniliforme [11]) | Inhibition of growth of phytopathogenic fungi colonies, % Botrytis cinereae test laboratory (Botrytis cinereae [13]) | Inhibition of growth of phytopathogenic fungi colonies, % Verticillium albo--atrum test laboratory (Verticillium albo-atrum [17]) | Inhibition of growth of phytopathogenic fungi colonies, % Rhyzoctonia violaceae test field (Rhyzoctonia violaceae [19]) | Inhibition of growth of phytopathogenic fungi colonies, % Venturia inaequalis test field (Venturia inaequalis [23]) | Inhibition of growth of phytopathogenic fungi colonies, % Fusatium monili-forme test field (Fusarium moniliforme [26]) | Inhibition of growth of phytopathogenic fungi colonies, % Botrytis cinereae test field (Botrytis cinereae [28]) | Inhibition of growth of phytopathogenic fungi colonies, % Verticillium albo--atrum test field (Verticillium albo-atrum [32]) | further results
1 | CCOP(=O)(NC(=O)c1ccc(Cl)c([N+](=O)[O-])c1)OCC [Example 8, diethyl ether of 3-nitro-4-chlorobenzoylamidophosphoric acid] | soluble in water, alcohols, acetone | 97% | 98% | – | – | – | – | – | – | – | – | – | – | –
2 | COP(=O)(NC(=O)c1ccc(Cl)c([N+](=O)[O-])c1)OC [Example 7, dimethyl ether of 3-mitro-4-chlorobenzoylamidiphos-phoric acid] | soluble in water, alcohols, acetone | 75% | 76% | – | – | – | – | – | – | – | – | – | – | –
3 | Cc1ccc(C)c(NP(=O)(NC(=O)c2ccc(Cl)cc2)Nc2cc(C)ccc2C)c1 [Example 2, di-2,5-dimethylanil-ide of para-chlorobenzoylamidophosphoric acid] | soluble in water, alcohols, acetone | 91% | 92% | – | – | – | – | – | – | – | – | – | – | –
4 | O=C(NP(=O)(Nc1ccccc1)Nc1ccccc1)c1ccc(Br)cc1 [Example 4, para-bromobenzoilamidophosphoric acid dianilide] | soluble in water, alcohols, acetone | 93% | 94% | – | – | – | – | – | – | – | – | – | – | –
5 | O=C(NP(=O)(Nc1ccc(Cl)cc1Cl)Nc1ccc(Cl)cc1Cl)c1ccc(Br)cc1 [Example 13, para-bromobenzoylamidophosphoric acid di-2,4-dichloroanil-ide] | – | – | – | 46% | 45% | 75% | 0% | 47% | 47% | 44% | 74% | 0% | 46% | Inhibition of growth of phytopathogenic fungi colonies, % Fusarium oxysporum test laboratory (Fusarium oxysporum [3]): 44%; Inhibition of growth of phytopathogenic fungi colonies, % Aspergillus fumigatis Tests laboratory (Aspergillus fumigatis [5]): 53%; Inhibition of growth of phytopathogenic fungi colonies, % Aspergillus niger test laboratory (Aspergillus niger [6]): 35%; Inhibition of growth of phytopathogenic fungi colonies, % Penicillium cyclopium Tests laboratory (Penicillium cyclopium [7]): 100%; Inhibition of growth of phytopathogenic fungi colonies, % Botrytis allii test laboratory (Botrytis allii [9]): 100%; Inhibition of growth of phytopathogenic fungi colonies, % Fusarium culmorum Tests laboratory (Fusarium culmorum [10]): 100%; Inhibition of growth of phytopathogenic fungi colonies, % Alternaria sobani test laboratory (Alternaria sobani [12]): 100%; Inhibition of growth of phytopathogenic fungi colonies, % Rhoma betae test laboratory (Rhoma betae [14]): 64%; Inhibition of growth of phytopathogenic fungi colonies, % Rhyzoctonia aderholdii test laboratory (Rhyzoctonia aderholdii [15]): 100%; Inhibition of growth of phytopathogenic fungi colonies, % Diplodia zeae test laboratory (Diplodia zeae [16]): 100%; Inhibition of growth of phytopathogenic fungi colonies, % Fusarium oxysporum test field (Fusarium oxysporum [18]): 43%; Inhibition of growth of phytopathogenic fungi colonies, % Aspergillus fumigatis Tests field (Aspergillus fumigatis [20]): 50%; Inhibition of growth of phytopathogenic fungi colonies, % Aspergillus niger test field (Aspergillus niger [21]): 34%; Inhibition of growth of phytopathogenic fungi colonies, % Penicillium cyclopium Tests field (Penicillium cyclopium [22]): 93%; Inhibition of growth of phytopathogenic fungi colonies, % Botrytis allii test field (Botrytis allii [24]): 100%; Inhibition of growth of phytopathogenic fungi colonies, % Fusarium culmorum Tests field (Fusarium culmorum [25]): 93%; Inhibition of growth of phytopathogenic fungi colonies, % Alternaria sobani test field (Alternaria sobani [27]): 100%; Inhibition of growth of phytopathogenic fungi colonies, % Rhoma betae test field (Rhoma betae [29]): 62%; Inhibition of growth of phytopathogenic fungi colonies, % Rhyzoctonia aderholdii test field (Rhyzoctonia aderholdii [30]): 100%; Inhibition of growth of phytopathogenic fungi colonies, % Diplodia zeae test field (Diplodia zeae [31]): 100%
6 | O=C1C(Cl)=C(Cl)C(=O)c2ccccc21 [2,3-dichloro--1,4-naphtho-quinone, 2,3-dichloro-1,4-naphthoquinone, reference compound] | – | – | – | 34% | 40% | 55% | 38% | 53% | 32% | 39% | 54% | 37% | 52% | –
